# US6673827B1, “Methods of treating fungal infections with inhibitors of NAD synthetase enzyme” (priority 1999, dated 2004)
# Where “and” joins values, the source holds several entries; their conditions need not be identical. Identical values can stand only once.
# What was measured:
# [1] = tested on: Torulopsis glabrata ERH-BC9938274; assay: In vitro study of inhibition of growth and lethality against yeast (MIC/MLC susceptibility test), isolate F; assay type: cell-based; conditions: Torulopsis glabrata, 1st pair of lines, isolate assigned by line order
# [2] = tested on: Candida albicans KJP-000531594; assay: In vitro study of inhibition of growth and lethality against yeast (MIC/MLC susceptibility test), isolate C; assay type: cell-based; conditions: Candida albicans, 1st pair of lines
# [3] = tested on: Cryptococcus neoformans DLB-1027594CNC; assay: In vitro study of inhibition of growth and lethality against yeast (MIC/MLC susceptibility test), isolate G; assay type: cell-based; conditions: Cryptococcus neoformans, 1st pair of lines, isolate assigned by line order
# [4] = tested on: Candida tropicalis ATCC 750; assay: In vitro study of inhibition of growth and lethality against yeast (MIC/MLC susceptibility test), isolate A; assay type: cell-based; conditions: Candida tropicalis, 2nd pair of lines, isolate assigned by line order
# Male CD-1 mice = assay: In vivo toxicity: intraperitoneal (IP) dosage in mice resulting in 50% lethality (LD50); conditions: single IP dose, observed 14 days
# [5] = tested on: Candida albicans (ATCC 10231); assay: Minimum Inhibitory Concentration (MIC) against yeast, broth dilution; assay type: cell-based; conditions: 37° C., 20 hours, mean of duplicate
# [6] = tested on: Cryptococcus neoformans SLP-BC0012854; assay: In vitro study of inhibition of growth and lethality against yeast (MIC/MLC susceptibility test), isolate H; assay type: cell-based; conditions: Cryptococcus neoformans, 2nd pair of lines, isolate assigned by line order
# [7] = tested on: Candida albicans LH-000664533; assay: In vitro study of inhibition of growth and lethality against yeast (MIC/MLC susceptibility test), isolate D; assay type: cell-based; conditions: Candida albicans, 2nd pair of lines, isolate assigned by line order
# [8] = tested on: Candida tropicalis ATCC 28707; assay: In vitro study of inhibition of growth and lethality against yeast (MIC/MLC susceptibility test), isolate B; assay type: cell-based; conditions: Candida tropicalis, 1st pair of lines, isolate assigned by line order
# [9] = tested on: Candida tropicalis (ATCC 28707-amphotericin B-resistant); assay: Minimum Inhibitory Concentration (MIC) against yeast, broth dilution; assay type: cell-based; conditions: 37° C., 20 hours, mean of duplicate
# [10] = target: T1, NAD synthetase (recombinant protein from B. subtilis; purified) (Bacillus subtilis, UniProt P08164); assay: NAD synthetase enzyme inhibition assay (coupled enzymatic assay, HTS); assay type: biochemical; conditions: table of structures used in the yeast assay (Example 4)
# T1 construct: made in house
# T1 sequence (P08164 whole entry): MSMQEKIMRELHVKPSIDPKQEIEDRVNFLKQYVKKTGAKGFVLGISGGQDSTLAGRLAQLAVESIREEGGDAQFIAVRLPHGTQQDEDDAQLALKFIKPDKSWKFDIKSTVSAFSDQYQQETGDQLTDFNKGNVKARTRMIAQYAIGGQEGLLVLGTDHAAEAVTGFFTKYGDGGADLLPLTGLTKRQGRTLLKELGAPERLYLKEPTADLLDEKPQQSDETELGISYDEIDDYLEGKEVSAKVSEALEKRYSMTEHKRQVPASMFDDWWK
# Experimental: NAD Synthetase Enzyme Inhibition Assay-Determination of Test Compound Concentrations Providing 50% Inhibition ([…]) of the Maximum Enzyme Rate
# The potential inhibitory activity of the synthetic compounds was determined by the use of a coupled enzymatic assay. The coupled assay involves two steps as summarized below. [drawing 98]
# The measurement of inhibitory activities of the test compounds was facilitated by the use of a high through-put screening system (HTS system). The HTS system utilizes an integrated Sagian 2M ORCA robotic system coordinating the functions of a Beckman Biomek 2000 liquid handler and a Molecular Devices SpectraMax Plus spectrophotometer. The 2M ORCA robotic station is responsible for the movement of all hardware and the integration of multiple stations on the worksurface. The Biomek 2000 is programmed to perform all phases of liquid dispensing and mixing. The SpectraMax Plus spectrophotometer is equipped to monitor absorbance in a 96-well plate format.
# The Biomek 2000 mixes these components utilizing a predefined mixing program. […] The reaction is monitored by measuring the increase in absorbance at 340 nm (NADH). The linear portion of the reaction is monitored for 180 sec. The initial velocity is determined using Softmax Pro, the software supplied with the Molecular Devices SpectrMax Plus spectrophotometer.
# The test compounds were supplied as a stock solution with a concentration of 50 mM dissolved in 100% dimethyl sulfoxide (DMSO). An initial screen was conducted on all compounds using a 2 or 3 concentration screen. The 2 panel screen used concentrations of 0.2 mM and 0.1 mM for the compounds. The 3 panel screen used concentrations of 0.2 mM, 0.1 mM, and 0.05 mM. […] The IC50 values for each compound were determined graphically from a plot of % inhibition versus […].
# [11] = tested on: Candida tropicalis (ATCC 750); assay: Minimum Inhibitory Concentration (MIC) against yeast, broth dilution; assay type: cell-based; conditions: 37° C., 20 hours, mean of duplicate
# [12] = tested on: Torulopsis glabrata JHC-BC9951635; assay: In vitro study of inhibition of growth and lethality against yeast (MIC/MLC susceptibility test), isolate E; assay type: cell-based; conditions: Torulopsis glabrata, 2nd pair of lines, isolate assigned by line order
structure (smiles),measurement,setting,value
C[n+]1cccc(C(=O)OCCCCCCCCn2ccc3cc(OCc4ccccc4)ccc32)c1 [Compound 769],"Minimum Inhibitory Conc. (MIC), 24 hr.",[1]; read at 24 hr,1 µg/mL
same,"Minimum Inhibitory Conc. (MIC), 48 hr.",[1]; read at 48 hr,2 µg/mL
same,Minimum Lethal Conc. (MLC),[1],2 µg/mL
same,"Minimum Inhibitory Conc. (MIC), 24 hr.","[2]; read at 24 hr, isolate not given, assigned by line order and MLC of Table 4B",2 µg/mL and 1 µg/mL
same,"Minimum Inhibitory Conc. (MIC), 48 hr.","[2]; read at 48 hr, isolate assigned by line order",2 µg/mL and 4 µg/mL
same,Minimum Lethal Conc. (MLC),[2]; isolate assigned by line order,8 µg/mL
same,"Minimum Inhibitory Conc. (MIC), 48 hr.",[3]; read at 48 hr,0.5 µg/mL
same,"Minimum Inhibitory Conc. (MIC), 72 hr.",[3]; read at 72 hr,1 µg/mL
same,Minimum Lethal Conc. (MLC),[3],2 µg/mL
same,"Minimum Inhibitory Conc. (MIC), 24 hr.",[4]; read at 24 hr,1 µg/mL
same,"Minimum Inhibitory Conc. (MIC), 48 hr.",[4]; read at 48 hr,1 µg/mL
same,Minimum Lethal Conc. (MLC),[4],2 µg/mL
same,LD50,Male CD-1 mice,43 mg/kg
same,MIC Candida albicans (ATCC 10231),[5],4.7 µg/mL
same,"Minimum Inhibitory Conc. (MIC), 48 hr.",[6]; read at 48 hr,0.5 µg/mL and 1 µg/mL
same,"Minimum Inhibitory Conc. (MIC), 72 hr.",[6]; read at 72 hr,0.5 µg/mL and 1 µg/mL
same,Minimum Lethal Conc. (MLC),[6],2 µg/mL
same,"Minimum Inhibitory Conc. (MIC), 24 hr.",[7]; read at 24 hr,1 µg/mL
same,"Minimum Inhibitory Conc. (MIC), 48 hr.",[7]; read at 48 hr,2 µg/mL
same,Minimum Lethal Conc. (MLC),[7],8 µg/mL
same,"Minimum Inhibitory Conc. (MIC), 24 hr.",[8]; read at 24 hr,0.25 µg/mL
same,"Minimum Inhibitory Conc. (MIC), 48 hr.",[8]; read at 48 hr,0.5 µg/mL
same,Minimum Lethal Conc. (MLC),[8],2 µg/mL
same,MIC Candida tropicalis (ATCC 28707),[9],0.098 µg/mL
same,IC50 (μg/mL) for Inhibit. of NAD Synthetase,[10],20 µg/mL
same,MIC Candida tropicalis (ATCC 750),[11],0.098 µg/mL
same,"Minimum Inhibitory Conc. (MIC), 24 hr.",[12]; read at 24 hr,0.5 µg/mL
same,"Minimum Inhibitory Conc. (MIC), 48 hr.",[12]; read at 48 hr,1 µg/mL
same,Minimum Lethal Conc. (MLC),[12],1 µg/mL
